Test results taken from USH1453H, “N-acetyl-D-glucosamine deacetylase and a process for preparing the same” (priority 1993, dated 1995).

How the values were obtained:
[1] = target: N-acetyl-D-glucosamine deacetylase (Vibrio cholerae, UniProt O32445); assay: Substrate specificity of the enzyme; type: biochemical, Vibrio cholerae non-01 (IFO 15429); conditions: substrate 0.2%, 37° C., pH 7.8, one hour
[2] = Stable pH of the enzyme; type: physicochemical; conditions: not less than 50% of initial activity retained, determined at 37° C. after incubation at 45° C. for 30 minutes
Description: The stable pH wherein not less than 50% of the initial activity of the enzyme is retained, as determined at 37° C. after incubation in a given buffer at 45° C. for 30 minutes, varies depending on the origin of the microorganism used to produce the enzyme, but usually ranges from about 3.0 to 9.0. For example, the stable pH of the enzyme derived from Vibrio sp. is in the range of about 6.0-9.0.

[3] = Optimal pH of the enzyme; type: biochemical; conditions: at 37° C.; indole-HCl method at pH 5.6-10.8
Description: The optimal pH of the enzyme of the present invention varies widely depending on the origin of the microorganism used to produce the enzyme, but usually in the range of about 4.0-9.0. For example, the optimal pH of the enzyme derived from Vibrio sp. is in the range of 7.8-8.2 as determined colorimetrically according to indole-HCl method at pH 5.6-10.8. The buffer solution used at pH 5.6-6.0 is 100 mM CH3 COOH--CH3 COONa, at pH 6.0-9.0, 100 mM […] -Na2 HPO4 is used, and at pH 9.6-10.8, 200 mM Na2 HPO4 -NaOH is used.

[4] = Determination of the enzymatic activity (D-glucosamine formed, indole-HCl colorimetry); type: biochemical; conditions: 37° C.; for specific activity: pH 7.8
Description: An enzyme solution (0.1 ml) is added to 0.3 ml of 100 mM phosphate buffer (pH 7.8) containing 0.1 ml of 1% N-acetyl-D-glucosamine as a substrate, and the resultant mixture is incubated at 37° C. for 30 minutes. The amount of D-glucosamine formed is determined colorimetrically using indole-HCl according to the method of Z. Dische and E. Borenfreund [J. Biol. Chem., 184:517 (1950)]. One unit of the enzyme is defined as the amount of the enzyme which is capable of producing 1 μmol D-glucosaminefrom N-acetyl-D-glucosamine per minute at 37° C.

[5] = tested on: Mucor sp.; conditions: method using a microorganism belonging to Mucor sp.; cited from earlier work

N-acetyl-D-glucosamine deacetylase, sequence (O32445 whole entry): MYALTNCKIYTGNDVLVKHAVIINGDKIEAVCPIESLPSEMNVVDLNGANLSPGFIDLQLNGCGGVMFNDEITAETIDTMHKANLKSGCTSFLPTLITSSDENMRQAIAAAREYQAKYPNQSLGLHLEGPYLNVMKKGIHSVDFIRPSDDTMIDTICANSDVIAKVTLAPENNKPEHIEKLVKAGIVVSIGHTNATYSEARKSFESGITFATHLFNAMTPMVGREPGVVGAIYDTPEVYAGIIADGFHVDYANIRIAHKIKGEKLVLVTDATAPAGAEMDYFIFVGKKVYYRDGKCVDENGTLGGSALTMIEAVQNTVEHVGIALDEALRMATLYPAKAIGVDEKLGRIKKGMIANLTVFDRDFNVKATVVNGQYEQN

Compound: CC(=O)N[C@H]1C(O)O[C@H](CO)[C@@H](O)[C@@H]1O (stereo partly drawn) [GlcNAc, N-acetyl-D-glucosamine]
- Enzymatic Activity [1]: 1.22 Unit/mg
- formation of D-glucosamine [1]: can be observed

Compound: N-acetyl-D-glucosamine deacetylase
- Stable pH [2]: 6.0-9.0
- Optimal pH [3]: 7.8-8.2
- specific activity ([4]; listed as enzyme): 1.22 unit/mg protein
- specific activity ([4]; listed as purified enzyme): 1.22 U/mg protein
- Spec. Act. ([4]; Table 1, per purification step, pH 7.8, 30 minutes): 1.22 Unit/mg

Compound: (GlcNAc)5
- deacetylated to the extent of [5]: 12-14%
